The inhibition is the drop in the measured response relative to a control, in per cent. In general, IC50 refers to the concentration that inhibits the measured activity by half. A higher IC50 goes with weaker potency in that assay.

Molecules are shown by their SMILES. Where a name gives a salt, the structure may show the parent alone.

The record followed here is patent US9409915B2, “Substituted aza-bicyclic imidazole derivatives useful as TRPM8 receptor modulators” (Janssen Pharmaceutica NV, priority 2010, dated 2016).

For the assay, the target named is canine TRPM8 (Canis lupus familiaris, UniProt Q1A7N1). In words: In vitro canine TRPM8 functional assay (Ca2+-sensitive fluorescent dye, icilin activation). The format is cell-based. Conditions: HEK293 cells stably expressing canine TRPM8, icilin-induced Ca2+ response; for IC50: eight-point concentration-response. The procedure:
The functional activity of representative compounds of the formula (I) of the present invention was quantified by measuring changes in intracellular calcium concentration using a Ca^2+-sensitive fluorescent dye. The changes in fluorescent signal were monitored by a fluorescence plate reader, either a FLIPR™ (Molecular Devices) or FDSS (Hamamatsu).
HEK293 cells stably expressing canine TRPM8 were routinely grown as monolayers in Dulbecco's minimum essential medium supplemented with 10% FBS, 2 mM L-glutamine, 100 units/mL penicillin, 100 ug/mL streptomycin and 400 μg/mL G418. Cells were maintained in 5% CO2 at 37° C. At 24 hr prior to assay, cells were seeded in black wall, clear-base poly-D-lysine coated 384-well plates (BD Biosciences, NJ, USA) at a density of 5,000 cells per well in culture medium and grown overnight in 5% CO2 at 37° C. On assay day, growth media was removed, and cells were loaded with Calcium 3 Dye (Molecular Devices) for 35 min at 37° C., under 5% CO2 and then incubated for 25 min at room temperature and atmosphere. Subsequently, cells were tested for agonist-induced increases in intracellular Ca^2+ levels using FLIPR™ or FDSS. Cells were treated with compounds of the formula (I) at varying concentrations and intracellular Ca^2+ was measured for 5 min prior to the addition of icilin to each well to achieve a final concentration that produces an approximately 80% maximal response.
Maximal fluorescence intensity (FI) achieved upon addition of icilin was exported from the FLIPR™ or FDSS software and further analyzed using GraphPad Prism 3.02 (Graph Pad Software Inc., CA, U.S.A.). Basal FI was subtracted prior to normalizing data to percent of maximal response. Curves were generated using the average of quadruplicate wells for each data point using nonlinear regression of either sigmoidal dose response or sigmoidal dose response (variable slope). Finally, the EC50 and IC50 values were calculated with the best-fit curve determined by GraphPad Prism

Sequence of canine TRPM8 (Q1A7N1 1-1104): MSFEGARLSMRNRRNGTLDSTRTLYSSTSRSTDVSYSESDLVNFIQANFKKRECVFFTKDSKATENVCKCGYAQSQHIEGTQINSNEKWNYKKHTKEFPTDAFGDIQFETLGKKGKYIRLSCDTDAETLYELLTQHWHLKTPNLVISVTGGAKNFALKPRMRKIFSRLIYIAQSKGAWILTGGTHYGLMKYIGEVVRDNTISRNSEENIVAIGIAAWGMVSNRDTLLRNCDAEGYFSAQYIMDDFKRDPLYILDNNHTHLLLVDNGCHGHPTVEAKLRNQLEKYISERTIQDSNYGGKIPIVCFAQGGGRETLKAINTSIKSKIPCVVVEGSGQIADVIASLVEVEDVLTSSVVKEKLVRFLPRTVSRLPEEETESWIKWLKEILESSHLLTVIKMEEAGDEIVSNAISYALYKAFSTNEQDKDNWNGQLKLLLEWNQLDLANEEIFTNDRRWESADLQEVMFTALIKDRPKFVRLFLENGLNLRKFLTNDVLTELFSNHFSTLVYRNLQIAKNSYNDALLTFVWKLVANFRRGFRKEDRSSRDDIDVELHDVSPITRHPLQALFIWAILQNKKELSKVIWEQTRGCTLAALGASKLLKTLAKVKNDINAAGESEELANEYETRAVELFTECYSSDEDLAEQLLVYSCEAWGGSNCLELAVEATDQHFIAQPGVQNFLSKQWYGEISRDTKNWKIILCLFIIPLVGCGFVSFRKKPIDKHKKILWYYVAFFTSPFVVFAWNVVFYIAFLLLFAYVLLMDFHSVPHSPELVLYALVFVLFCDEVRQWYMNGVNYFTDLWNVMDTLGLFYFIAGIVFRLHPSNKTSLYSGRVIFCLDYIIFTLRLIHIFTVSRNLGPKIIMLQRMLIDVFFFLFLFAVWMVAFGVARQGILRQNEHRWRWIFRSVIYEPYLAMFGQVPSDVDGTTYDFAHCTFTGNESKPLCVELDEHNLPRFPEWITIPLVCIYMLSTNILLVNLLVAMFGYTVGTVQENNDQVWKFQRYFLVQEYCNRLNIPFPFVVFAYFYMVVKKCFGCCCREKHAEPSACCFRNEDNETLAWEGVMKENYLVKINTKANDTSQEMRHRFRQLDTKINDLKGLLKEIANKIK

`Cn1nc(C(C)(C)C)c(Cl)c1-c1nc2cc(-c3ccccc3F)nc(OCC(F)(F)F)c2[nH]1` [Compound 91, 2-(5-tert-Butyl-4-chloro-2-methyl-2H-pyrazol-3-yl)-6-(2-fluorophenyl)-4-(2,2,2-trifluoroethoxy)-3H-imidazo[4,5-c]pyridine sodium salt] had an IC50 of 3.8 nM. Further, the inhibition at 0.2 µM (0.2 μM compound) turned out to be 99%. The like results for `CC(C)Oc1nc(-c2ccccc2OC(F)(F)F)cc2nc(-c3c(Cl)c(C(C)(C)C)nn3C)[nH]c12` [Compound 93, 2-(5-tert-Butyl-4-chloro-2-methyl-2H-pyrazol-3-yl)-4-isopropoxy-6-(2-trifluoromethoxyphenyl)-3H-imidazo[4,5-c]pyridine sodium salt] were, in that order, 1.2 nM and 99%. The like results for `Cn1nc(C(C)(C)C)c(Cl)c1-c1nc2cc(-c3ccccc3C(F)(F)F)ncc2[nH]1` [Compound 46, 2-(5-tert-Butyl-4-chloro-2-methyl-2H-pyrazol-3-yl)-6-(2-trifluoromethyl-phenyl)-3H-imidazo[4,5-c]pyridine hydrochloride] were, in that order, 19 nM and 99%. In the same order, the values of `CN(C)CCOc1nc(-c2ccccc2C(F)(F)F)cc2nc(-c3c(Cl)c(C(C)(C)C)nn3C)[nH]c12` [Compound 53, {2-[2-(5-tert-Butyl-4-chloro-2-methyl-2H-pyrazol-3-yl)-6-(2-trifluoromethyl-phenyl)-3H-imidazo[4,5-c]pyridin-4-yloxy]-ethyl}-dimethyl-amine] are 27 nM and 99%. Compound `Cn1nc(C(C)(C)C)c(C#N)c1-c1nc2cc(-c3ccccc3C(F)(F)F)nc(N3CCCCC3)c2[nH]1` [Compound 22, 3-tert-Butyl-1-methyl-5-[4-piperidin-1-yl-6-(2-trifluoromethyl-phenyl)-3H-imidazo[4,5-c]pyridine-2-yl]-1H-pyrazole-4-carbonitrile] came in with a half-inhibitory concentration (IC50) of 1.4 nM. Further, the inhibition at 0.2 µM (0.2 μM compound) came to 99%. `Cl.Cn1nc(C(C)(C)C)c(Cl)c1-c1nc2cc(-c3ccccc3F)ncc2[nH]1` [Compound 43, 2-(5-tert-Butyl-4-chloro-2-methyl-2H-pyrazol-3-yl)-6-(2-fluoro-phenyl)-3H-imidazo[4,5-c]pyridine hydrochloride]: inhibition was half-maximal at 22 nM (IC50). Moreover, the “% Inh @ 0.2 μM” value (0.2 μM compound, hydrochloride) is on record as 100%.

The compound `CC(C)(C)c1cc(-c2nc3nc(-c4ccccc4Cl)ccc3[nH]2)on1` [Compound 26, 2-(3-tert-Butyl-isoxazol-5-yl)-5-(2-chloro-phenyl)-1H-imidazo[4,5-b]pyridine] displayed an IC50 of 35 nM. Further, for the setting “0.2 μM compound”, the inhibition at 0.2 µM came out at 100%. The like results for `CN(C)CCOc1nc(-c2ccccc2Cl)cc2nc(-c3c(Cl)c(C(C)(C)C)nn3C)[nH]c12` [Compound 56, {2-[2-(5-tert-Butyl-4-chloro-2-methyl-2H-pyrazol-3-yl)-6-(2-chloro-phenyl)-3H-imidazo[4,5-c]pyridin-4-yloxy]-ethyl}-dimethyl-amine] were, in that order, 24 nM and 99%.

In turn, `Cn1nc(C(C)(C)C)cc1-c1nc2cc(-c3ccccc3Cl)ncc2[nH]1` [Compound 41, 2-(5-tert-Butyl-2-methyl-2H-pyrazol-3-yl)-6-(2-chloro-phenyl)-3H-imidazo[4,5-c]pyridine hydrochloride] registered an IC50 of 51 nM. For the same compound, the inhibition at 0.2 µM (0.2 μM compound) is 94%.

Turning to `Cn1nc(C(C)(C)C)cc1-c1nc2nc(-c3ccccc3C(F)(F)F)ccc2[nH]1` [Compound 34, 2-(5-tert-Butyl-2-methyl-2H-pyrazol-3-yl)-5-(2-trifluoromethyl-phenyl)-1H-imidazo[4,5-b]pyridine], the IC50 was 77 nM. The inhibition at 0.2 µM (0.2 μM compound) amounted to 89%. In turn, `CC(C)Oc1nc(-c2ccccc2C(F)(F)F)cc2nc(-c3c(C#N)c(C(C)(C)C)nn3C)[nH]c12` [Compound 14, 3-tert-Butyl-5-[4-isopropoxy-6-(2-trifluoromethyl-phenyl)-3H-imidazo[4,5-c]pyridin-2-yl]-1-methyl-1H-pyrazole-4-carbonitrile benzenesulfonic acid salt] displayed an IC50 of 1.2 nM. For the same compound, where the note is “0.2 μM compound”, the inhibition at 0.2 µM amounted to 99%.

As for `Cn1nc(C(C)(C)C)c(C#N)c1-c1nc2cc(-c3ccccc3C(F)(F)F)nc(OCC(F)(F)F)c2[nH]1` [Compound 15, 3-tert-Butyl-1-methyl-5-[4-(2,2,2-trifluoro-ethoxy)-6-(2-trifluoromethyl-phenyl)-3H-imidazo[4,5-c]pyridine-2-yl]-1H-pyrazole-4-carbonitrile methanesulfonic acid salt], the midpoint of inhibition, the IC50, lay at 1.8 nM. In addition, under “0.2 μM compound”, the inhibition at 0.2 µM worked out at 100%. The compound `COc1c(C(C)(C)C)nn(C)c1-c1nc2cc(-c3ccccc3C(F)(F)F)nc(OC)c2[nH]1` [Compound 79, 2-(5-tert-Butyl-4-methoxy-2-methyl-2H-pyrazol-3-yl)-4-methoxy-6-(2-trifluoromethyl-phenyl)-3H-imidazo[4,5-c]pyridine methanesulfonic acid salt] showed an IC50 of 20 nM. Moreover, under “0.2 μM compound”, the inhibition at 0.2 µM was 101%. Regarding `Cn1nc(C(C)(C)C)c(Cl)c1-c1nc2nc(-c3ccccc3Cl)ccc2[nH]1` [Compound 23, 2-(5-tert-Butyl-4-chloro-2-methyl-2H-pyrazol-3-yl)-5-(2-chloro-phenyl)-1H-imidazo[4,5-b]pyridine hydrochloride], under “HEK293, 0.2 μM compound”, the inhibition at 0.2 µM was determined as 96%. As for `COc1nc(-c2ccccc2C(F)(F)F)cc2[nH]c(-c3onc(C(C)(C)C)c3C#N)nc12` [Compound 13, 3-tert-Butyl-5-[4-methoxy-6-(2-trifluoromethyl-phenyl)-1H-imidazo[4,5-c]pyridine-2-yl]-isoxazole-4-carbonitrile methanesulfonic acid salt], the IC50 stood at 46 nM. Besides, where the note is “0.2 μM compound”, the inhibition at 0.2 µM was determined as 94%. In the same order, the values of `Cn1nc(C(C)(C)C)c(Cl)c1-c1nc2cc(-c3ccccc3C(F)(F)F)nc(Cl)c2[nH]1` [Compound 71, 2-(5-tert-Butyl-4-chloro-2-methyl-2H-pyrazol-3-yl)-4-chloro-6-(2-trifluoromethyl-phenyl)-3H-imidazo[4,5-c]pyridine Hydrochloride] are 8.8 nM and 100%.

For the compound `Cn1nc(C(C)(C)C)c(C#N)c1-c1nc2cc(-c3ccccc3C(F)(F)F)ncc2[nH]1` [Compound 45, 3-tert-Butyl-1-methyl-5-[6-(2-trifluoromethyl-phenyl)-3H-imidazo[4,5-c]pyridin-2-yl]1H-pyrazole-4-carbonitrile hydrochloride], 27 nM corresponded to half-maximal inhibition (IC50). Also, the inhibition at 0.2 µM (0.2 μM compound) was 98%.

Compound `Cn1nc(C(C)(C)C)c(Cl)c1-c1nc2cc(-c3ccccc3Cl)nc(OCC(F)(F)F)c2[nH]1` [Compound 89, 2-(5-tert-Butyl-4-chloro-2-methyl-2H-pyrazol-3-yl)-6-(2-chlorophenyl)-4-(2,2,2-trifluoro-ethoxy)-3H-imidazo[4,5-c]pyridine sodium salt] had an IC50 of 0.53 nM. The inhibition at 0.2 µM (0.2 μM compound) came to 100%. Regarding `Cn1nc(C(C)(C)C)c(Cl)c1-c1nc2nc(-c3ccccc3C(F)(F)F)ccc2[nH]1` [Compound 32, 2-(5-tert-Butyl-4-chloro-2-methyl-2H-pyrazol-3-yl)-5-(2-trifluoromethyl-phenyl)-1H-imidazo[4,5-b]pyridine hydrochloride], the IC50 is 7.6 nM. Moreover, the inhibition at 0.2 µM (0.2 μM compound) was 100%. In turn, `COCCOc1nc(-c2ccccc2C(F)(F)F)cc2nc(-c3c(Cl)c(C(C)(C)C)nn3C)[nH]c12` [Compound 20, 2-(5-tert-Butyl-4-chloro-2-methyl-2H-pyrazol-3-yl)-4-(2-methoxy-ethoxy)-6-(2-trifluoromethyl-phenyl)-3H-imidazo[4,5-c]pyridine benzenesulfonic acid salt] had an IC50 of 0.95 nM. The inhibition at 0.2 µM (0.2 μM compound) was 99%. In the case of `CC(C)(C)c1cc(-c2nc3nc(-c4ccccc4C(F)(F)F)cc(C(F)(F)F)c3[nH]2)on1` [Compound 10, 2-(3-tert-Butyl-isoxazol-5-yl)-7-trifluoromethyl-5-(2-trifluoromethyl-phenyl)-1H-imidazo[4,5-b]pyridine], 16 nM corresponded to half-maximal inhibition (IC50). Besides, the inhibition at 0.2 µM (0.2 μM compound) turned out to be 101%.

`COc1nc(-c2ccccc2Cl)cc2nc(-c3cnn(C(C)(C)C)c3C)[nH]c12` [Compound 100, 2-(1-tert-Butyl-5-methyl-1H-pyrazol-4-yl)-6-(2-chloro-phenyl)-4-methoxy-3H-imidazo[4,5-c]pyridine sodium salt] showed an IC50 of 61.3 nM. Further, the inhibition at 0.2 µM (0.2 μM compound) worked out at 94%.
